According to PMC4744035, “In Vivo, In Vitro, and In Silico Characterization of Peptoids as Antimicrobial Agents” (PLoS ONE, 2016):
In brackets after ≈: the same amount, converted by molar mass. Square brackets hold non-standard residues; d marks the D form. Peptide text beside a SMILES is read from it. Nspe = C[C@H](NCC(=O)O)c1ccccc1; Nlys = NCCCCNCC(=O)O

What was measured:
[1] = Acute toxicity screen in healthy mice; type: in vivo; conditions: three healthy mice, 4 mg/kg (100 μg per mouse) intraperitoneally
Protocol: This dosage was selected to be on the conservative end of the dosage range typically evaluated for AMPs (1 mg/kg to 24 mg/kg) in other animal studies. To screen for acute signs of toxicity, three healthy mice were injected intraperitoneally with 4 mg/kg (100 μg per mouse) of peptoid 1, and a second control group with an equivalent volume of saline.

erythrocytes = assay: Hemolytic activity (HD10/HD50); type: cell-based; conditions: erythrocytes
Description: Table 1 Characteristics of antimicrobial peptoids, screened for activity against B. subtilis and E. coli bacterial strains. | column: HD10 / HD50

[2] = tested on: P. aeruginosa H1027 (MDR); assay: microbe, parasite or virus in culture; conditions: P. aeruginosa H1027 (MDR)
Procedure, shortened: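 Growth inhibition is determined by modified microdilution in Mueller Hinton broth, with peptoids prepared in 0.01% acetic acid containing 0.2% bovine serum albumin. Final inoculum is 2–7 x 10^5 CFU/mL; endpoint is absence of growth after overnight 37°C.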

[3] = tested on: 20 bacterial strains (13 Gram-negative, 7 Gram-positive)
Protocol: The MICs of test agents were measured using a modified broth micro-dilution method in Difco Mueller Hinton medium, on a panel of bacterial pathogens that were both susceptible and resistant to common antibiotics (S1 File). Briefly, serial dilutions were performed in 0.01% acetic acid containing 0.2% bovine serum albumin at 10-fold the desired final concentration. Ten μL of the 10-fold concentrated test reagents were added to each well of a 96-well polypropylene microtitre plate containing 90 μL of Mueller Hinton media per well. Bacteria were added to the plate from an overnight culture at a final concentration of 2–7 x 10^5 CFU/mL and incubated overnight at 37°C. The MIC is defined as the concentration at which no growth was observed.
Screening of peptoid antimicrobial activity against a panel of multidrug resistant superbugs was done according to the protocol described in the manuscript. The bacterial strains used in this panel included; P. aeruginosa PAO1 strain H103 [1], P. maltophilia ATCC#13637, S. aureus ATCC#25923 [1], E. faecalis ATCC#29212 [2], and E. cloacae 218R, constitutively expressing Class C chromosomal β-lactamase, were from the Hancock lab strains collection. An MRSA clinical isolate was kindly provided by Anthony Chow (Vancouver General Hospital, Vancouver, Canada). Two Klebsiella pneumoniae and two E. coli clinical isolates expressing extended spectrum β-lactamases (ESBL) were kindly provided by George Zhanel (Health Sciences Centre, Winnipeg, Canada). Vancomycin-resistant clinical isolates of Enterococcus faecalis and E. faecium were obtained from Ana M. Paccagnella (BC Centre for Disease Control, Vancouver, Canada). Three clinical isolates (#9, #198 and #213) of multi-drug resistant P. aeruginosa, were kindly provided by Carlos Kiffer (University of São Paulo, Brazil). […] Three P. aeruginosa clinical isolates of the Liverpool epidemic strain (LES) (H1027, H1030 and LES400) were all kindly provided by Craig Winstanley (University of Liverpool, UK). […] All tested bacterial strains were categorized as biohazard level 2 pathogens.

E. coli ATCC 35218 = type: cell-based
Procedure, shortened: (§1)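 MICs determined by 2:1 serial broth microdilution in cation-adjusted Mueller-Hinton broth per CLSI M7-A6, using inoculum at 1 x 10^6 CFU/mL mixed 1:1 with peptoid solution. Three independent replicates, each with two parallel trials.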

B. subtilis ATCC 6633 = type: cell-based
Procedure, shortened: as §1

## C[C@@H](c1ccccc1)N(CC(N)=O)C(=O)CN(C(=O)CN(CCCCN)C(=O)CN(C(=O)CN(C(=O)CN(CCCCN)C(=O)CN(C(=O)CN(C(=O)CN(CCCCN)C(=O)CN(C(=O)CN(C(=O)CNCCCCN)[C@@H](C)c1ccccc1)[C@@H](C)c1ccccc1)[C@@H](C)c1ccccc1)[C@@H](C)c1ccccc1)[C@@H](C)c1ccccc1)[C@@H](C)c1ccccc1)[C@@H](C)c1ccccc1 [Peptoid 1, H-(NLys-Nspe-Nspe)4-NH2] (H-[Nlys][Nspe][Nspe][Nlys][Nspe][Nspe][Nlys][Nspe][Nspe][Nlys][Nspe][Nspe]-NH2)
[1]
  acute signs of toxicity, 24 hours post-injection observation: all mice appeared to be healthy and exhibited normal activity and no weight loss or abject morbidity
erythrocytes; first value of HD10 / HD50 cell
  HD10 (hemolytic activity): 21
erythrocytes; second value of HD10 / HD50 cell
  HD50 (hemolytic activity): 100
[2]
  MIC: 2 µg/mL (≈ 1.1 µM)
[3]; 7 Gram-positive strains
  median MIC against all Gram-positive strains tested: 2 µg/mL
[3]; out of the 20 pathogens tested
  number of pathogens with MIC ≤ 8 μg/mL: 19
E. coli ATCC 35218
  MIC E. coli: 6.3 µM (≈ 11.5 µg/mL)
B. subtilis ATCC 6633
  MIC B. subtilis: 1.6 µM (≈ 2.91 µg/mL)
